Measurements published in PubChem BioAssay (NCI).
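Values below derive from 48-hour exposures of cells grown in 96-well plates, with endpoints linearly interpolated between the two concentrations bracketing the appropriate inhibition level. Here, GI50 denotes the concentration required for 50% inhibition of growth. TGI is the concentration that stops growth completely.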

Legend:
Assay in all cases: NCI tumour cell line growth inhibition, 48 h
786-0 renal = system: 786-0 renal
HCT-116 colon = system: HCT-116 colon
IGROV1 ovarian = system: IGROV1 ovarian
M14 melanoma = system: M14 melanoma
NCI-H226 lung = system: NCI-H226 lung
NCI-H460 lung = system: NCI-H460 lung
OVCAR-8 ovarian = system: OVCAR-8 ovarian
SK-MEL-5 melanoma = system: SK-MEL-5 melanoma
SW-620 colon = system: SW-620 colon
RXF 393 renal = system: RXF 393 renal

Compound | TGI (786-0 renal) [µM] | TGI (HCT-116 colon) [µM] | TGI (IGROV1 ovarian) [µM] | TGI (M14 melanoma) [µM] | TGI (NCI-H226 lung) [µM] | TGI (NCI-H460 lung) [µM] | TGI (OVCAR-8 ovarian) [µM] | TGI (SK-MEL-5 melanoma) [µM] | TGI (SW-620 colon) [µM] | TGI (RXF 393 renal) [µM] | GI50 (786-0 renal) [µM] | GI50 (HCT-116 colon) [µM] | GI50 (IGROV1 ovarian) [µM] | GI50 (M14 melanoma) [µM] | GI50 (NCI-H460 lung) [µM] | GI50 (OVCAR-8 ovarian) [µM] | GI50 (RXF 393 renal) [µM] | GI50 (SK-MEL-5 melanoma) [µM] | GI50 (SW-620 colon) [µM] | GI50 (NCI-H226 lung) [µM]
COC1OC(C(C)O)C2OC(C)(C)OC12 (centres undefined) | > 100 | > 100 | > 100 | > 100 | > 100 | > 100 | > 100 | > 100 | > 100 |  |  |  |  |  |  |  |  |  |  | 
OC1c2ccccc2C2C(O)c3ccccc3C12 (centres undefined) | > 100 |  | > 100 | > 100 |  | > 100 | > 100 | > 100 | > 100 | > 100 |  |  |  |  |  |  |  |  |  | 
CCOC(=O)C1Oc2ccc([N+](=O)[O-])cc2C1(C)O (centres undefined) | > 100 |  | > 100 | > 100 | > 100 | > 100 | > 100 | > 100 | > 100 | > 100 |  |  |  |  |  |  |  |  |  | 
Cc1cn(Cc2ccccc2CCl)c(=O)n(Cc2ccccc2CCl)c1=O | 3.39 | 3.18 | 2.25 | 3.28 |  | 4.67 | 5.69 | 2.93 | 6.03 | 3.22 | 1.67 | 1.55 | 0.53 | 1.69 | 1.98 | 2.39 | 1.57 | 1.56 | 2.14 | 
COC(=O)c1nc(N)nc(C(=O)OC)c1C(=O)c1ccccc1 | > 100 | > 100 | > 100 | > 100 |  | > 100 | > 100 | > 100 | > 100 | > 100 |  |  |  |  |  |  |  |  |  | 
O=S(=O)(N/N=C/c1ccc(Cl)cc1Cl)c1ccccc1 | > 100 | > 100 | > 100 | > 100 | > 100 |  | > 100 | > 100 | > 100 | > 100 |  |  |  |  |  |  |  |  |  | 
COc1ccc(/C(C#N)=C(/N)SCc2ccccc2Cl)cc1 | 32.7 | 32.8 | > 100 | 27.8 | 33.3 |  | > 10 |  | 29.7 | 30.9 |  |  |  |  |  |  |  |  |  | 
COC1(Cc2ccccc2)C(=O)c2ccccc2N1C(C)=O (centres undefined) | > 100 | > 100 | > 100 | > 100 |  | > 100 | > 100 |  | > 100 | > 100 |  |  |  |  |  |  |  |  |  | 
CCOC(=O)c1cn(CC)c2cc3c(cc2c1=O)SCS3 | > 100 |  | > 100 | > 100 |  | > 100 | > 100 | > 100 | > 100 | > 100 |  |  |  |  |  |  |  |  |  | 
CCCCCCCCCCCCCCCCCc1nnc(N)o1 | > 100 | > 100 | > 100 | > 100 | > 100 | > 100 | > 100 |  | > 100 |  |  |  |  |  |  |  |  |  |  | 
COc1cc2c(cc1OCCCCCn1c3ccccc3c3ccccc31)N=C[C@@H]1CCCN1C2=O | 3.2 | 3.33 | 4.69 |  | 8.48 |  | 7.17 | 3.15 |  | 16.4 | 1.73 | 1.65 | 2.08 |  |  | 2.56 | 4.34 | 1.73 |  | 2.49
C=C(C)C(=O)O[C@H]1CC2=CC(CC(C)=C[C@H]3OC(=O)C(=C)C13)OC2=O (some centres undefined) | 24.4 | 24.2 | > 100 | > 100 | > 100 | > 100 | > 100 | > 100 | 36 |  |  |  |  |  |  |  |  |  |  | 
O=c1[nH]c2c(c3ccccc13)CCc1ccccc1-2 | > 100 | > 100 | > 100 |  | > 100 |  | > 100 | > 100 | > 100 | > 100 |  |  |  |  |  |  |  |  |  | 
c1ccc(/C(=N\Nc2ccc3ccccc3n2)c2ccccn2)cc1 | 4.35 | 5.62 | 3.23 | 4.44 | 5.16 | 11.3 | 17.4 | 2.92 | 15.3 |  | 0.509 | 0.436 | 0.433 | 0.484 | 0.414 | 0.456 |  | 0.487 | 0.699 | 0.534
O=c1cc(-c2ccc(O)cc2)oc2cc(O)cc(O)c12 | > 100 | > 100 | 80 | > 100 | 75.9 | > 100 |  | 87.2 |  |  |  |  |  |  |  |  |  |  |  | 
Cc1cc(Cl)ccc1Nc1nc(C(F)(F)F)ccc1C(=O)Nc1cccc(C(F)(F)F)c1 | 12.9 |  | 22.7 |  | 17.6 | 10.6 | 22.7 | 9.34 | 16.6 | 27.5 | 3.61 |  | 3.88 |  | 3.07 | 4.32 | 3.58 | 2.79 | 4.23 | 4.05
COc1ccc(/C=N\O[Si](C)(C)C(C)(C)C)cc1O[Si](C)(C)C(C)(C)C | 30.8 | 29.1 | 36 | 36.3 |  | 46.3 | 45.2 | 33.9 | 36.9 | 28.4 |  |  |  |  |  |  |  |  |  | 
O=C(O)c1cc(=O)c2cc(C(=O)c3cccs3)c(Cl)c(Cl)c2o1 | > 100 |  | > 100 | > 100 | > 100 | > 100 | > 100 | > 100 | > 100 |  |  |  |  |  |  |  |  |  |  | 
Nc1ccc(C2=Nc3ccccc3SC(c3ccccc3O)C2)cc1 (centres undefined) | 73.6 |  | > 100 | > 100 | > 100 | > 100 | > 100 | > 100 | > 100 | > 100 |  |  |  |  |  |  |  |  |  | 
NNC(=S)N/N=C(/C(=O)Nc1ccc([N+](=O)[O-])cc1)c1nc2ccc([N+](=O)[O-])cc2[nH]c1=O | > 100 | > 100 | > 100 | > 100 | > 100 | > 100 | > 100 | > 100 | > 100 |  |  |  |  |  |  |  |  |  |  | 
O=C1/C(=C\c2ccccc2)c2ccccc2N1/N=C\c1ccccc1 | > 100 | > 100 | > 100 | > 100 | > 100 | > 100 | > 100 | > 100 | > 100 |  |  |  |  |  |  |  |  |  |  | 
O=C1NN=CN2C(=O)CCC12 (centres undefined) | > 100 | > 100 | > 100 | > 100 |  | > 100 | > 100 | > 100 | > 100 | > 100 |  |  |  |  |  |  |  |  |  | 
